Numbers after ± are expanded uncertainties. Values belong to the molecule of their own block, whether it stands above or below them.
How the values were obtained:
[1] = Liquid; for mass density: 298.15 K, 101.33 kPa, Vibrating tube method; for vapor or sublimation pressure: Closed cell (Static) method
[2] = refractive index (Na D-line) (dimensionless); conditions: 298.15 K; 101.33 kPa; Liquid; Standard Abbe refractometry

mass density [1]: 1107.92 ± 0.09 kg/m3
vapor or sublimation pressure ([1]; 405.97 K): 10 ± 0.73 kPa
vapor or sublimation pressure ([1]; 406.07 K): 10 ± 0.73 kPa
vapor or sublimation pressure ([1]; 423.18 K): 20 ± 0.99 kPa
vapor or sublimation pressure ([1]; 441.92 K): 40 ± 1.6 kPa
refractive index [2]: 1.4312 ± 0.0003
SMILES: OCCO [1,2-ethanediol]

SMILES: OCCCCO [1,4-butanediol]
mass density [1]: 1013.04 ± 0.05 kg/m3
vapor or sublimation pressure ([1]; 437.48 K): 10 ± 0.73 kPa
vapor or sublimation pressure ([1]; 454.63 K): 20 ± 0.99 kPa
vapor or sublimation pressure ([1]; 473.22 K): 40 ± 1.6 kPa
refractive index [2]: 1.4449 ± 0.0003

SMILES: OCCOCCO [diethylene glycol]
mass density [1]: 1112.56 ± 0.12 kg/m3
vapor or sublimation pressure ([1]; 445.07 K): 10 ± 0.82 kPa
vapor or sublimation pressure ([1]; 445.47 K): 10 ± 0.81 kPa
vapor or sublimation pressure ([1]; 464.36 K): 20 ± 1.1 kPa
vapor or sublimation pressure ([1]; 485.33 K): 40 ± 1.8 kPa
refractive index [2]: 1.4452 ± 0.0003

mass density [1]: 1120.7 ± 0.1 kg/m3
vapor or sublimation pressure ([1]; 480.39 K): 10 ± 0.88 kPa
vapor or sublimation pressure ([1]; 500.97 K): 20 ± 1.2 kPa
vapor or sublimation pressure ([1]; 524.64 K): 40 ± 2 kPa
refractive index [2]: 1.4457 ± 0.0003
SMILES: OCCOCCOCCO [triethylene glycol]

Source: the NIST ThermoML archive (doi:10.1021/je401020e)
